Results from the supplement of paper PMC10307832.

Key:
Test in all cases: relative viability (nuclei count vs DMSO), 5 days (fraction); higher = more cells survive
[1] = compound: CN(C)C(=N)NC(=N)N [Metformin] + CS(=O)(=O)N1CCN(Cc2cc3nc(-c4cccc5[nH]ncc45)nc(N4CCOCC4)c3s2)CC1 [Pictilisib] (partner 1 µM)
Procedure, shortened: (§1)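 A single step with final 0.05% Triton X-100, 1% formaldehyde and 1 ug/ml Hoechst fixed the cells and stained nuclei 5 days after treatment. Lung cancer cell lines in 1536-well plates had been treated by pin tool the day after seeding with one drug alone or a fixed anchor-drug dose plus five library-drug doses (not always all listed) in √10 steps, and nuclei were counted on 4× images. Relative viability is the ratio of nuclei in treated wells to nuclei in vehicle wells, taken as the median of duplicate plates.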

[2] = compound: CN(C)C(=N)NC(=N)N [Metformin] + C[C@@H](Oc1cc(-c2cnn(C3CCNCC3)c2)cnc1N)c1c(Cl)ccc(F)c1Cl [Crizotinib] (partner 1 µM)
Procedure, shortened: as §1

[3] = compound: CN(C)C(=N)NC(=N)N [Metformin] + O=C(c1cc(Cc2n[nH]c(=O)c3ccccc23)ccc1F)N1CCN(C(=O)C2CC2)CC1 [Olaparib] (partner 8 µM)
Procedure, shortened: as §1

[4] = compound: N#CC1(c2ccc(NC(=O)c3cccnc3NCc3ccncc3)cc2)CCCC1 [Apatinib] + O=C(CCCCCCC(=O)Nc1ccccc1)NO [Vorinostat] (partner 1 µM)
Procedure, shortened: as §1

## NCI-H460
[1]; first compound 31.62 µM
  relative viability: 0.41
[1]; first compound 100 µM
  relative viability: 0.327
[1]; first compound 316.23 µM
  relative viability: 0.337
[1]; first compound 1000 µM
  relative viability: 0.401
[2]; first compound 31.62 µM
  relative viability: 0.734
[2]; first compound 100 µM
  relative viability: 0.778
[2]; first compound 316.23 µM
  relative viability: 0.829
[2]; first compound 1000 µM
  relative viability: 0.916
[3]; first compound 31.62 µM
  relative viability: 0.412
[3]; first compound 100 µM
  relative viability: 0.422
[3]; first compound 316.23 µM
  relative viability: 0.294
[3]; first compound 1000 µM
  relative viability: 0.262
[4]; first compound 0.08 µM
  relative viability: 0.741
[4]; first compound 0.253 µM
  relative viability: 0.73
[4]; first compound 0.8 µM
  relative viability: 0.623
[4]; first compound 2.53 µM
  relative viability: 0.577
[4]; first compound 8 µM
  relative viability: 0.417
